Measurements reported in patent publication US11034658B2, “Pyridinyl pyrazoles as modulators of RORγT” (Janssen Pharmaceutica NV, priority 2018, dated 2021).

Experiments:
[1] = biological target: human RORγt ligand binding domain (RORγt LBD) (Homo sapiens (Human), UniProt P51449); assay: RORγt ThermoFluor assay
From the text: ThermoFluor® is a fluorescence based assay that estimates ligand binding affinities by measuring the effect of a ligand on protein thermal stability (Pantoliano, M. W., Petrella, E. C., Kwasnoski, J. D., Lobanov, V. S., Myslik, J., Graf, E., Carver, T., Asel, E., Springer, B. A., Lane, P., and Salemme, F. R. (2001) High-density miniaturized thermal shift assays as a general strategy for drug discovery. J Biomol Screen 6, 429-40, and Matulis, D., Kranz, J. K., Salemme, F. R., and Todd, M. J. (2005) Thermodynamic stability of carbonic anhydrase: measurements of binding affinity and stoichiometry using ThermoFluor. Biochemistry 44, 5258-66). This approach is applicable to a wide variety of systems, and rigorous in theoretical interpretation through quantitation of equilibrium binding constants (KD).
The shift in the melting point described as a ΔTm is proportional to the concentration and affinity of the ligand. The compound potency may be compared as a rank order of either values at a single compound concentration or in terms of KD values, estimated from concentration response curves.
RORγt ThermoFluor® Assay Construct
For the RORγt construct used in the ThermoFluor® assay, numbering for the nucleotide sequences was based on the reference sequence for human RORγt, transcript variant 2, NCBI Accession: NM 001001523.1 (SEQ ID NO:1). Nucleotides 850-1635 (SEQ ID NO:2) coding for the wild type human RORγt ligand binding domain (RORγt LBD) were cloned into the pHIS1 vector, a modified pET E. coli expression vector (Accelagen, San Diego), containing an in-frame N-terminal His-tag and a TurboTEV protease cleavage site (ENLYFQG, SEQ ID NO:3) upstream of the cloned insert sequence. The amino acid sequence for the RORγt construct used in the Thermofluor® assay is shown as SEQ ID NO:4.
ThermoFluor® experiments were carried out using instruments owned by Janssen Research and Development, L.L.C. through its acquisition of 3-Dimensional Pharmaceuticals, Inc. 1,8-ANS (Invitrogen) was used as a fluorescent dye. Protein and compound solutions are dispensed into black 384-well polypropylene PCR microplates (Abgene) and overlayed with silicone oil (1 μL, Fluka, type DC 200) to prevent evaporation.
Bar-coded assay plates are robotically loaded onto a thermostatically controlled PCR-type thermal block and then heated at a typical ramp-rate of 1° C./min for all experiments. Fluorescence was measured by continuous illumination with UV light (Hamamatsu LC6) supplied via fiber optic and filtered through a band-pass filter (380-400 nm; >6 OD cutoff). Fluorescence emission of the entire 384-well plate was detected by measuring light intensity using a CCD camera (Sensys, Roper Scientific) filtered to detect 500±25 nm, resulting in simultaneous and independent readings of all 384 wells. Images were collected at each temperature, and the sum of the pixel intensity in a given area of the assay plate was recorded versus temperature. Reference wells contained RORγt without compounds, and the assay conditions were as follows:
Project compounds were arranged in a pre-dosed mother plate (Greiner Bio-one) wherein compounds are serially diluted in 100% DMSO by 1:2 from a high concentration of 10 mM over 12 columns within a series (column 12 is a reference well containing DMSO, no compound). The compounds were robotically dispensed directly into assay plates (1×=46 nL) using a Hummingbird capillary liquid handling instrument (Digilab). Following compound dispense, protein and dye in buffer was added to achieve the final assay volume of 3 μL, followed by 1 μL of silicone oil.
The binding affinity was estimated as described previously (Matulis, D., Kranz, J. K., Salemme, F. R., and Todd, M. J. (2005) Thermodynamic stability of carbonic anhydrase: measurements of binding affinity and stoichiometry using ThermoFluor®. Biochemistry 44, 5258-66) using the following thermodynamic parameters of protein unfolding:
Reference RORγt Tm: 47.8° C.

[2] = biological target: full-length human RORγt (GAL4-DBD-RORγt fusion) in HEK293T cells (Homo sapiens (Human), UniProt P51449); assay: RORγt (full-length human) reporter assay, conditions A or B; assay type: cell-based; conditions: for IC50: HEK293T cells, read-out: RORγt (FL) Reporter Assay A or B, IC50; for inhibition at 3 µM: 3 μM compound concentration (footnote *)
Description: RORγt (Full-Length Human) Reporter Assay:
(§1) HEK293T cells were plated at 35,000 per well in 96-well plate in medium of DMEM with 10% FBS. […] After overnight (16 to 20 hours) incubation, media were removed and cells were lysed with 50 μL Glo Lysis Buffer (Promega) for 10-15 minutes followed by 10 minute incubation with 50 μL Dual Glo reagent (Promega) at room temperature. Firefly luciferase luminescence was measured using a BMG Pherastar plate reader. To each well, 50 μL Stop and Glo reagent was added and incubated for 10 minutes at room temperature. Renilla luminescence was measured using a BMG Pherastar plate reader. To calculate the effect of compounds on RORγt activity, firefly values were normalized against values of DMSO only and values of reference compound at saturating concentration, then further normalized against Renilla signals. IC50s were generated by plotting final Renilla normalized data against compound concentration and percent inhibition was calculated against DMSO control.
as §1, with “at 8750 cells” for “at 35,000”, “in 384-well” for “in 96-well”, “with 20” for “with 50”, “well, 20” for “well, 50”

[3] = HEK-293T, read-out: RORγt (FL) Reporter Assay A or B, % inhibition

Chain of human RORγt ligand binding domain (RORγt LBD) (P51449 other isoform, or with tags, fused parts or gaps): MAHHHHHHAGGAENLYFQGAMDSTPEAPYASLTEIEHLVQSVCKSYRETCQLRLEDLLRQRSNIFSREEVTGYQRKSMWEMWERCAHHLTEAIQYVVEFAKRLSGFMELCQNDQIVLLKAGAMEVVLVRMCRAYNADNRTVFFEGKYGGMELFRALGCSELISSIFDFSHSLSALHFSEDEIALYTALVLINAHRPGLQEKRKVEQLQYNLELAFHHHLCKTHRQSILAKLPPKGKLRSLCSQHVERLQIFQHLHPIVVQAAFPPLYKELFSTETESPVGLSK
Chain of full-length human RORγt (GAL4-DBD-RORγt fusion) in HEK293T cells (P51449 other isoform, or with tags, fused parts or gaps): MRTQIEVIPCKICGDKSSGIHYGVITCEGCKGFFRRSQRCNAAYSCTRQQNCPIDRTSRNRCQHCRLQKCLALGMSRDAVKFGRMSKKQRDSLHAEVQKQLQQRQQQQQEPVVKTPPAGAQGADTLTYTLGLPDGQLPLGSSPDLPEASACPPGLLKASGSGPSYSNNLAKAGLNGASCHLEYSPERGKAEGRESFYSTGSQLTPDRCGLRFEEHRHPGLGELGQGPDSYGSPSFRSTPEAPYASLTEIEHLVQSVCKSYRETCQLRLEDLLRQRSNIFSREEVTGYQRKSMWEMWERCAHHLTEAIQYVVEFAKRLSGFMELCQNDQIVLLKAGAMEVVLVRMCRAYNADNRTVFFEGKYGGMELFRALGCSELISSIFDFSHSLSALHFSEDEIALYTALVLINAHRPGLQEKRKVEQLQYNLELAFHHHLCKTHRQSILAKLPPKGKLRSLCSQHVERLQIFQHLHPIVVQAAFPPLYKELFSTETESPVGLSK

Kd [1]	IC50 [2]	inhibition at 3 µM [2, 3]	SMILES	inhibition at 2 µM ([2]; HEK-293T, 2 μM compound concentration, read-out: RORγt (FL) Reporter Assay A or B, % inhibition)
3.2 nM	35 nM	97%	CCn1nc(C(=O)NC[C@@]2(O)CC[C@H](S(C)(=O)=O)C[C@@H]2O)c(C)c1-c1ccc(CC(C)(C)C(F)(F)F)nc1OC(F)F (relative stereo) [Example 51, 5-(2-(Difluoromethoxy)-6-(3,3,3-trifluoro-2,2-dimethylpropyl)pyridin-3-yl)-N-(((1S*,2S*,4S*)-1,2-dihydroxy-4-(methylsulfonyl)cyclohexyl)methyl)-1-ethyl-4-methyl-1H-pyrazole-3-carboxamide]	–
3.6 nM	36 nM	82%	CCn1nc(C(=O)NC[C@H]2CC[C@H](S(C)(=O)=O)CC2)c(Cl)c1-c1cnc(C[C@H](C)C(F)(F)F)cc1OC(F)F (single isomer, unassigned) [Example 14, 4-Chloro-5-(4-(difluoromethoxy)-6-((S*)-3,3,3-trifluoro-2-methylpropyl)pyridin-3-yl)-1-ethyl-N-(((1r,4S)-4-(methylsulfonyl)cyclohexyl)methyl)-1H-pyrazole-3-carboxamide]	–
12 nM	98 nM	71%	CCn1nc(C(=O)NC[C@]2(O)CC[C@@H](S(C)(=O)=O)CC2)c(Cl)c1-c1cnc(C[C@H](C)C(F)(F)F)cc1OC(F)F (single isomer, unassigned) [Example 15, 4-Chloro-5-(4-(difluoromethoxy)-6-((S*)-3,3,3-trifluoro-2-methylpropyl)pyridin-3-yl)-1-ethyl-N-(((1s,4R)-1-hydroxy-4-(methylsulfonyl)cyclohexyl)methyl)-1H-pyrazole-3-carboxamide]	–
5.2 nM	16 nM	101%	CCn1nc(C(=O)NC[C@H]2CC[C@H](S(C)(=O)=O)CC2)c(C)c1-c1cnc(C[C@H](C)C(F)(F)F)cc1OC(F)F (single isomer, unassigned) [Example 16, 5-(4-(Difluoromethoxy)-6-((S*)-3,3,3-trifluoro-2-methylpropyl)pyridin-3-yl)-1-ethyl-4-methyl-N-(((1r,4S)-4-(methylsulfonyl)cyclohexyl)methyl)-1H-pyrazole-3-carboxamide]	–
4.1 nM	34 nM	125%	CCn1nc(C(=O)NC[C@H]2CC[C@H](S(C)(=O)=O)CC2)c(Cl)c1-c1cnc(C[C@@H](C)C(F)(F)F)cc1OC(F)F (single isomer, unassigned) [Example 17, 4-Chloro-5-(4-(difluoromethoxy)-6-((R*)-3,3,3-trifluoro-2-methylpropyl)pyridin-3-yl)-1-ethyl-N-(((1r,4R)-4-(methylsulfonyl)cyclohexyl)methyl)-1H-pyrazole-3-carboxamide]	–
18 nM	140 nM	100%	CCn1nc(C(=O)NC[C@]2(O)CC[C@@H](S(C)(=O)=O)CC2)c(Cl)c1-c1cnc(C[C@@H](C)C(F)(F)F)cc1OC(F)F (single isomer, unassigned) [Example 18, 4-Chloro-5-(4-(difluoromethoxy)-6-((R*)-3,3,3-trifluoro-2-methylpropyl)pyridin-3-yl)-1-ethyl-N-(((1s,4S)-1-hydroxy-4-(methylsulfonyl)cyclohexyl)methyl)-1H-pyrazole-3-carboxamide]	–
17 nM	40 nM	105%	CCn1nc(C(=O)NC[C@H]2CC[C@H](S(C)(=O)=O)CC2)c(C)c1-c1cnc(C[C@@H](C)C(F)(F)F)cc1OC(F)F (single isomer, unassigned) [Example 19, 5-(4-(Difluoromethoxy)-6-((R*)-3,3,3-trifluoro-2-methylpropyl)pyridin-3-yl)-1-ethyl-4-methyl-N-(((1r,4R)-4-(methylsulfonyl)cyclohexyl)methyl)-1H-pyrazole-3-carboxamide]	–
34 nM	99 nM	123%	CCn1nc(C(=O)NC[C@]2(O)CC[C@@H](S(C)(=O)=O)CC2)c(C)c1-c1cnc(C[C@@H](C)C(F)(F)F)cc1OC(F)F (single isomer, unassigned) [Example 20, 5-(4-(Difluoromethoxy)-6-((R*)-3,3,3-trifluoro-2-methylpropyl)pyridin-3-yl)-1-ethyl-N-(((1s,4S)-1-hydroxy-4-(methylsulfonyl)cyclohexyl)methyl)-4-methyl-1H-pyrazole-3-carboxamide]	–
8.1 nM	63 nM	105%	CCn1nc(C(=O)NC[C@]2(O)CC[C@@H](S(C)(=O)=O)C[C@H]2O)c(Cl)c1-c1cnc(CC(C)(C)C(F)(F)F)cc1OC(F)F (stereo in doubt) [Example 3, 4-Chloro-5-(4-(difluoromethoxy)-6-(3,3,3-trifluoro-2,2-dimethylpropyl)pyridin-3-yl)-N-(((1R*,2R*,4R*)-1,2-dihydroxy-4-(methylsulfonyl)cyclohexyl)methyl)-1-ethyl-1H-pyrazole-3-carboxamide]	–
9.1 nM	55 nM	100%	CCn1nc(C(=O)NC[C@@]2(O)CC[C@H](S(C)(=O)=O)C[C@@H]2O)c(Cl)c1-c1cnc(CC(C)(C)C(F)(F)F)cc1OC(F)F (stereo in doubt) [Example 4, 4-Chloro-5-(4-(difluoromethoxy)-6-(3,3,3-trifluoro-2,2-dimethylpropyl)pyridin-3-yl)-N-(((1S*,2S*,4S*)-1,2-dihydroxy-4-(methylsulfonyl)cyclohexyl)methyl)-1-ethyl-1H-pyrazole-3-carboxamide]	–

SMILES	Kd [1]	IC50 [2]	inhibition at 3 µM [2, 3]	inhibition at 2 µM ([2]; HEK-293T, 2 μM compound concentration, read-out: RORγt (FL) Reporter Assay A or B, % inhibition)
CCn1nc(C(=O)NC[C@H]2CC[C@H](S(C)(=O)=O)CC2)c(Cl)c1-c1cnc(C[C@@H](C)C(F)(F)F)cc1OC (single isomer, unassigned) [Example 61, 4-Chloro-1-ethyl-5-(4-methoxy-6-((R*)-3,3,3-trifluoro-2-methylpropyl)pyridin-3-yl)-N-((1r,4r)-4-(methylsulfonyl)cyclohexyl)methyl)-1H-pyrazole-3-carboxamide]	16 nM	110 nM	–	87%
